Source: patent publication US20250326815A1, “STAPLE-CONTAINING POLYPEPTIDES AND APPLICATION THEREOF” (Soter Biopharma Pte. Ltd., priority 2021, published 2025)

Key:
[1] = Pharmacokinetic evaluation in cynomolgus monkeys; format: in vivo; details: cynomolgus monkey, plasma, 0.02 mg/kg, single SC 0.02 mpk; for half-life: read-out: Half-life T1/2 (converted); for AUC(0-t): read-out: Integral of the SC concentration AUC0-240 h; for Cmax: read-out: Maximum plasma concentration
Protocol: Pharmacokinetics of the compound in cynomolgus monkeys were assayed.
(§1) The pharmacokinetic characteristics of the compound in mammals after a subcutaneous injection were assayed using the standard protocol. In the assay, the candidate compound was formulated into a clear solution and given to cynomolgus monkeys by a single subcutaneous injection (SC, 0.02 mpk). The solvent of the subcutaneous injection was citrate buffer (20 mM, pH=7). Whole blood was collected, and plasma was prepared. Drug concentration was analyzed by LC-MS/MS method, and pharmacokinetic parameters were calculated using Phoenix WinNonlin software.

GLP-1R = molecular target: T1, GLP-1R (Homo sapiens, UniProt P43220); assay: In vitro agonistic activity on GLP-1R (cAMP assay); format: cell-based; details: HEK293 cell line; for Agonistic activity on GLP-1R Max Activity (%): Max Dose 20 nM
T1 construct: host or cells: HEK293
T1 sequence (P43220 24-463, species assumed): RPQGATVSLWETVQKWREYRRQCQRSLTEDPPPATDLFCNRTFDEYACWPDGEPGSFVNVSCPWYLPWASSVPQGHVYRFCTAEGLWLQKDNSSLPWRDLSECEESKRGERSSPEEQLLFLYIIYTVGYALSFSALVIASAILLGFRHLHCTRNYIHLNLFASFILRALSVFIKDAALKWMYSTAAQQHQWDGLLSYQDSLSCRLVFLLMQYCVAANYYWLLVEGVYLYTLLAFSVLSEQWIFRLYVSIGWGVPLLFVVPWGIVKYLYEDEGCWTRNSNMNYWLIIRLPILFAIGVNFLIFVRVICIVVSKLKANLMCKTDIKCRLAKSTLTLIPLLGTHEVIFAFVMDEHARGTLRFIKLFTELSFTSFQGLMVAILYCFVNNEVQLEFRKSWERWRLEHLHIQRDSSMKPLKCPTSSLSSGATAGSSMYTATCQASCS
Protocol: (§2) The cell lines were constructed by Shanghai WuXi AppTec.
(§3) The compounds to be assayed were serially diluted 4-fold with Bravo to obtain 10 concentrations, with a starting concentration of 30 μM.
(§4) 1) 100 nL of the compound was transferred to an OptiPlate-384 plate using Echo.
(§5) 2) The OptiPlate-384 plate was centrifuged at 1000 rpm for 5 seconds.
(§6) 1) A GLP-1R/GIPR/GCGR cell cryopreservation tube was quickly placed in warm water at 37° C. to thaw.
(§7) 2) The cell suspension was transferred to a 15 mL centrifuge tube, and gently washed with 10 ml of HBSS.
(§8) 3) The centrifuge tube was centrifuged at 1000 rpm at room temperature for 1 minute.
(§9) 4) The supernatant was discarded.
(§10) 5) The cells at the bottom were gently dispersed and gently washed with 10 ml of HBSS. The cells were centrifuged and sedimented, and finally resuspended with the assay buffer.
(§11) 6) Vi-cell was used to measure the cell density and viability.
(§12) 7) The concentration of GLP-1R/GIPR/GCGR cells was diluted to 2.0*105/mL with the assay buffer.
(§13) 8) […] of the diluted cell suspension was transferred to the OptiPlate-384 plate.
(§14) 9) The plate was incubated at room temperature for 30 minutes.
(§15) 1) 10 μL of 800 nM gradient diluted cAMP standard was added into an empty well of the OptiPlate-384 plate.
(§16) 2) 10 μL of cAMP assay reagent was added.
(§17) 3) The OptiPlate-384 plate was covered with a TopSeal-A film and incubated at room temperature for 60 minutes.
(§18) The TopSeal-A was peeled off and the plate was read on the EnVision.

GCGR = molecular target: T2, GCGR (Homo sapiens, UniProt P47871); assay: In vitro agonistic activity on GCGR (cAMP assay); format: cell-based; details: HEK293 cell line; for Agonistic activity on GCGR Max Activity (%): Max Dose 100 nM
T2 construct: host or cells: HEK293
T2 sequence (P47871 26-477, species assumed): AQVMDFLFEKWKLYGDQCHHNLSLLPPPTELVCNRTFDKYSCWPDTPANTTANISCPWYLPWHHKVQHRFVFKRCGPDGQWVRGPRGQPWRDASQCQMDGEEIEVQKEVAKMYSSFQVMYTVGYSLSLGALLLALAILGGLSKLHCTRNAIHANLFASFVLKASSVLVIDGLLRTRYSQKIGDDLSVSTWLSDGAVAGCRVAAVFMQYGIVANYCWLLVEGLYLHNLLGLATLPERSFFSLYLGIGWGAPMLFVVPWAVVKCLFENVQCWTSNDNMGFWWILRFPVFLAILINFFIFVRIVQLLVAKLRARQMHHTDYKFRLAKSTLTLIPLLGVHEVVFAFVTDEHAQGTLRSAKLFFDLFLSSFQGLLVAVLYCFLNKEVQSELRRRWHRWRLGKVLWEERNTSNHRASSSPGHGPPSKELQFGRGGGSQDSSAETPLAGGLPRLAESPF
Protocol: as §2, §3, §4, §5, §6, §7, §8, §9, §10, §11, §12, §13, §14, §15, §16, §17, §18

[2] = Pharmacokinetic evaluation in mice; format: in vivo; details: mouse, plasma, 0.048 mg/kg, C57BL/6 mice, single SC 0.048 mpk; for half-life: read-out: Half-life T1/2 (converted); for AUC(0-t): read-out: Integral of the SC concentration AUC0-72 h; for Cmax: read-out: Maximum plasma concentration
Protocol: Pharmacokinetics of the compound in C57BL/6 mice were assayed.
as §1, with “rodents” for “mammals”, “mice” for “cynomolgus monkeys”, “0.048” for “0.02”

DIO mice = assay: Drug efficacy study in DIO mice (weight loss); format: in vivo; details: 10 nmol/kg subcutaneous, once every three days
Protocol: The weight loss effect of the assay compound in DIO mice was studied.
1. After arriving at the facility, the DIO mice were raised in an animal breeding room with strictly controlled environmental conditions. The temperature in the breeding room was maintained at 20 to 24° C., and the humidity was maintained at 30 to 70%. The temperature and humidity in the breeding room were monitored in real time using a thermo-hygrometer, and the temperature and humidity were recorded twice a day (once in the morning and once in the afternoon). The lighting in the animal breeding room was controlled by an electronic timed lighting system. The lights were on for 12 hours and off for 12 hours every day (turned on at 7:00 am and turned off at 19:00 pm). During the assay, the animals were raised in individual cages and toys were provided in each cage. During the assay, the animals had free access to food (growth/breeding feed for rats and mice) and water.
2. The animals in each group were subcutaneously injected with a solvent or an assay compound (10 nmol/kg), respectively. The administration time was 9:30 in the morning. The administration frequency was once every three days, and the administration cycle was 21 days.

| SMILES | Tmax [1] [h] | half-life [1] [h] | AUC(0-t) [1] [µM·h] | Cmax [1] [nM] | EC50 (GLP-1R) [pM] | Agonistic activity on GLP-1R Max Activity (%) (GLP-1R) | EC50 (GCGR) [pM] | Agonistic activity on GCGR Max Activity (%) (GCGR) | Tmax [2] [h] | half-life [2] [h] | AUC(0-t) [2] [µM·h] | Cmax [2] [nM] | ΔBody weight % (comparison of the body weight after 21 days with the body weight on day 1) (DIO mice) [%] |
| --- | --- | --- | --- | --- | --- | --- | --- | --- | --- | --- | --- | --- | --- |
| CC(C)C[C@H](NC(=O)[C@H](CC(C)C)NC(=O)[C@H](Cc1c[nH]c2ccccc12)NC(=O)[C@@H]1CCCCNC(=O)CN(C(=O)COCCOCCNC(=O)COCCOCCNC(=O)CC[C@H](NC(=O)CCCCCCCCCCCCCCCCCCC(=O)O)C(=O)O)CC(=O)NCCCC[C@H](NC(=O)[C@H](C)NC(=O)[C@H](CCCCN)NC(=O)[C@H](CCCCN)NC(=O)[C@H](CCC(=O)O)NC(=O)[C@H](CC(=O)O)NC(=O)[C@H](CC(C)C)NC(=O)[C@H](Cc2ccc(O)cc2)NC(=O)[C@H](CCCCN)NC(=O)[C@H](CO)NC(=O)[C@H](Cc2ccc(O)cc2)NC(=O)[C@H](CC(=O)O)NC(=O)[C@H](CO)NC(=O)[C@@H](NC(=O)[C@H](Cc2ccccc2)NC(=O)[C@@H](NC(=O)CNC(=O)[C@H](CCC(N)=O)NC(=O)C(C)(C)NC(=O)[C@@H](N)Cc2c[nH]cn2)[C@@H](C)O)[C@@H](C)O)C(=O)N[C@@H](CCC(=O)O)C(=O)N[C@@H](Cc2ccccc2)C(=O)N[C@@H](C(C)C)C(=O)N1)C(=O)N[C@@H](CCC(=O)O)C(=O)NCC(=O)NCC(=O)N1CCC[C@H]1C(=O)N[C@@H](CO)C(=O)N[C@@H](CO)C(=O)NCC(N)=O [WX004] | 32 | 67 | 5.72 | 48 | 44.6 | 85.77 | 53.1 | 68.62 | 12 | 22 | 1.16 | 36 | −31.89 |
| CC(C)C[C@H](NC(=O)[C@H](CC(C)C)NC(=O)[C@H](Cc1c[nH]c2ccccc12)NC(=O)[C@H](CCC(=O)O)NC(=O)[C@@H](NC(=O)[C@H](Cc1ccccc1)NC(=O)[C@H](CCC(=O)O)NC(=O)[C@@H]1CCCCNC(=O)CN(C(=O)COCCOCCNC(=O)COCCOCCNC(=O)CC[C@H](NC(=O)CCCCCCCCCCCCCCCCCCC(=O)O)C(=O)O)CC(=O)NCCCC[C@H](NC(=O)[C@H](CCC(=O)O)NC(=O)[C@H](CC(=O)O)NC(=O)[C@H](CC(C)C)NC(=O)[C@H](Cc2ccc(O)cc2)NC(=O)[C@H](CCCCN)NC(=O)[C@H](CO)NC(=O)[C@H](Cc2ccc(O)cc2)NC(=O)[C@H](CC(=O)O)NC(=O)[C@H](CO)NC(=O)[C@@H](NC(=O)[C@H](Cc2ccccc2)NC(=O)[C@@H](NC(=O)CNC(=O)[C@H](CCC(N)=O)NC(=O)C(C)(C)NC(=O)[C@@H](N)Cc2c[nH]cn2)[C@@H](C)O)[C@@H](C)O)C(=O)N[C@@H](CCCCN)C(=O)N[C@@H](C)C(=O)N1)C(C)C)C(=O)N[C@@H](CCC(=O)O)C(=O)NCC(=O)NCC(=O)N1CCC[C@H]1C(=O)N[C@@H](CO)C(=O)N[C@@H](CO)C(=O)NCC(N)=O [WX001] | 24 | 93 | 5.51 | 43 | 22.7 | 122.64 | 26.7 | 98.93 | 8 | 21 | 1.81 | 46 | −28.91 |
